system: LNCaP cell lines; experiment: WST-1 Cell Proliferation and Viability Assay; assay type: cell-based; details: Homo sapiens; LNCaP cells, compound incubation 18-72 hours
Method: WST-1 Cell Proliferation and Viability Assay
Cell proliferation and cell viability was assessed using the tetrazolium salt WST-1 (Roche Applied Science, Indianapolis Ind.). The assay is based on the cleavage of WST-1 (light red) by mitochondrial dehydrogenase causing the formation of formazan (dark red), which can be measured on an optical density (O.D.) reader. LNCaP cell lines were plated in 96 well tissue culture plates (Corning Costar, N.Y.) at a density of 5000 cells/well in 150 μl complete media phenol-red free (RPMI-1640 [Invitrogen, Carlsbad Calif.] and 10% fetal calf serum). This plate is termed the assay plate. After the cells are plated, they are then incubated overnight at 37 degrees Celsius in a humidified chamber containing 5% CO2 (incubator).
Compounds are added to the assay plate in 50 μl of complete media and 0.4% DMSO (v:v) making the final DMSO concentration 0.1%. The assay plate is then returned to the incubator for 18-72 hours. WST-1 reagent is then added (20 μl/well) and the plate is placed on an ELISA plate shaker for 30 minutes at room temperature. Plates are then transferred back to the incubator for an additional 3 hours. Plates are then read on a 96 well plate O.D. reader at A490-A650.

| SMILES | EC50 |
| --- | --- |
| COc1ccccc1CCOc1cccc(NC(=O)c2cccc(C(C)C)c2O)c1 [Compound 203] | 33 µM |
| Cc1ccc(C(=O)NCc2cccc(-c3ccccc3)c2)c(O)c1 [Compound 205] | 43 µM |
| Cc1ccc(O)c(C(=O)NCc2cccc(-c3ccccc3)c2)c1 [Compound 206] | 34 µM |
| COc1ccccc1CCOc1cccc(NC(=O)c2cccc(C)c2O)c1 [Compound 207] | 33 µM |
| COc1ccccc1CCOc1cccc(NC(=O)c2ccc(C)cc2O)c1 [Compound 208] | 21 µM |
| COc1ccccc1CCOc1cccc(NC(=O)c2cc(C)ccc2O)c1 [Compound 209] | 17 µM |
| Cc1cccc(C(=O)Nc2cccc(OCCc3ccccc3)c2)c1O [Compound 210] | 22 µM |
| Cc1ccc(C(=O)Nc2cccc(OCCc3ccccc3)c2)c(O)c1 [Compound 211] | 22 µM |
| Cc1ccc(O)c(C(=O)Nc2cccc(OCCc3ccccc3)c2)c1 [Compound 212] | 20 µM |
| CC(C)(C)c1cc(C(=O)NCc2cccc(-c3ccccc3)c2)c(O)c(C(C)(C)C)c1 [Compound 219] | 32 µM |
| COc1ccccc1CCOc1cccc(NC(=O)c2cccc(-c3ccccc3)c2O)c1 [Compound 221] | 17 µM |
| COc1ccccc1CCOc1cccc(NC(=O)c2cc(-c3ccc(F)cc3F)ccc2O)c1 [Compound 223] | 8 µM |
| O=C(Nc1cccc(OCCc2ccccc2)c1)c1cccc(-c2ccccc2)c1O [Compound 224] | 22 µM |
| O=C(Nc1cccc(OCCc2ccccc2)c1)c1cc(-c2ccc(F)cc2F)ccc1O [Compound 226] | 7 µM |
| COc1ccccc1CCOc1cccc(NC(=O)c2cc(-n3cccc3)ccc2O)c1 [Compound 233] | 10 µM |
| COc1ccccc1CCOc1cccc(NC(=O)c2cc(-c3ccccc3)ccc2O)c1 [Compound 234] | 10 µM |
| COc1cccc(-c2ccc(O)c(C(=O)Nc3cccc(OCCc4ccccc4OC)c3)c2)c1 [Compound 235] | 6 µM |

| SMILES | EC50 |
| --- | --- |
| CCC(C)c1cccc(-c2cccc(CNC(=O)c3cc(Cl)ccc3O)c2)c1 (stereo not drawn) [Compound 236] | 11 µM |
| Cc1cc(Cl)c(OCCc2ccccc2C(F)(F)F)c(NC(=O)c2cc(Cl)ccc2O)c1C [Compound 240] | 10 µM |
| CC1CN(c2ccc(NC(=O)c3cc(Cl)ccc3O)c(OCCc3ccccc3C(F)(F)F)c2)CC(C)O1 (stereo not drawn) [Compound 241] | 3 µM |
| O=C(Nc1cc(Cl)cc(Cl)c1OCCc1cccc(C(F)(F)F)c1)c1cc(Cl)ccc1O [Compound 242] | 2 µM |
| Cc1cc(OCCc2cccc(C(F)(F)F)c2)c(NC(=O)c2cc(Cl)ccc2O)cc1Cl [Compound 243] | 1 µM |
| O=C(Nc1cc(C(F)(F)F)ccc1OCCc1cccs1)c1cc(Cl)ccc1O [Compound 244] | 0.9 µM |
| O=C(Nc1cc(C(F)(F)F)ccc1OCCc1ccsc1)c1cc(Cl)ccc1O [Compound 245] | 0.9 µM |
| CC(C)COc1ccc(Cl)cc1NC(=O)c1cc(Cl)ccc1O [Compound 246] | 2 µM |
| O=C(Nc1cc(C(F)(F)F)ccc1OCCc1ccccc1Cl)c1cc(Cl)ccc1O [Compound 247] | 0.9 µM |
| O=C(Nc1cc(C(F)(F)F)ccc1OCCc1cccc(Cl)c1)c1cc(Cl)ccc1O [Compound 248] | 0.5 µM |
| O=C(Nc1cc(C(F)(F)F)ccc1OCCc1ccc(Cl)c(Cl)c1)c1cc(Cl)ccc1O [Compound 249] | 0.9 µM |
| O=C(Nc1ccc(Cl)cc1OCCc1ccc(Cl)cc1)c1cc(Cl)ccc1O [Compound 250] | 2 µM |
| O=C(Nc1cc(C(F)(F)F)cc(Cl)c1OCCc1ccccc1C(F)(F)F)c1cc(Cl)ccc1O [Compound 251] | 2 µM |
| O=C(Nc1cc(C(F)(F)F)cc(Cl)c1OCCc1cccc(C(F)(F)F)c1)c1cc(Cl)ccc1O [Compound 252] | 1 µM |
| O=C(Nc1cc(C(F)(F)F)ccc1OCCc1ccc(Cl)cc1Cl)c1cc(Cl)ccc1O [Compound 253] | 1 µM |
| O=C(Nc1cc(C(F)(F)F)ccc1OCCc1ccc(Cl)s1)c1cc(Cl)ccc1O [Compound 254] | 1 µM |

Next, values leading:

| EC50 | SMILES |
| --- | --- |
| 26 µM | COc1ccc(NC(=O)c2cc(Cl)ccc2O)c(OC)c1 [Compound 256] |
| 1 µM | O=C(Nc1cc(C(F)(F)F)ccc1SCCc1ccccc1)c1cc(Cl)ccc1O [Compound 259] |
| 1 µM | O=C(Nc1cc(C(F)(F)F)ccc1SCCc1cccc(C(F)(F)F)c1)c1cc(Cl)ccc1O [Compound 260] |
| 6 µM | O=CNc1cccc(C(=O)Nc2cc(C(F)(F)F)ccc2OCCc2cccc(C(F)(F)F)c2)c1O [Compound 261] |
| 0.9 µM | O=C(Nc1cc(OC(F)(F)F)ccc1OCCc1cccc(C(F)(F)F)c1)c1cc(Cl)ccc1O [Compound 262] |
| 2 µM | O=C(Nc1cc(C(F)(F)F)cc(Cl)c1OCCc1ccc(Cl)cc1)c1cc(Cl)ccc1O [Compound 263] |
| 1 µM | O=C(Nc1cc(C(F)(F)F)ccc1Oc1ccc(Cl)c2ccccc12)c1cc(Cl)ccc1O [Compound 264] |
| 0.9 µM | O=C(Nc1cc(C(F)(F)F)ccc1OCCC1CC1)c1cc(Cl)ccc1O [Compound 265] |
| 0.9 µM | O=C(Nc1cc(C(F)(F)F)ccc1OCc1ccccc1)c1cc(Cl)ccc1O [Compound 266] |
| 8 µM | O=CNc1cccc(C(=O)Nc2cc(C(F)(F)F)ccc2Oc2ccc(Cl)c3ccccc23)c1O [Compound 269] |
| 0.9 µM | O=C(Nc1cc(C(F)(F)F)ccc1OCCC(F)(F)F)c1cc(Cl)ccc1O [Compound 271] |
| 0.9 µM | O=C(Nc1cc(C(F)(F)F)ccc1N1CCN(c2ccccc2)CC1)c1cc(Cl)ccc1O [Compound 272] |
| 4 µM | COc1ccccc1CCNc1ccc(C(F)(F)F)cc1NC(=O)c1cc(Cl)ccc1O [Compound 274] |
| 3 µM | O=C(Nc1cc(C(F)(F)F)ccc1NCC(c1ccccc1)c1ccccc1)c1cc(Cl)ccc1O [Compound 275] |
| 4 µM | O=C(Nc1cc(C(F)(F)F)ccc1NCCc1ccccc1Cl)c1cc(Cl)ccc1O [Compound 276] |
| 3 µM | O=C(Nc1cc(C(F)(F)F)ccc1NCc1cccc2ccccc12)c1cc(Cl)ccc1O [Compound 277] |
| 6 µM | O=C(Nc1cc(COCc2ccccc2)ccc1Cl)c1cc(Cl)ccc1O [Compound 279] |
| 1 µM | O=C(Nc1cc(C(F)(F)F)ccc1OC1CCCCC1c1ccccc1)c1cc(Cl)ccc1O (stereo not drawn) [Compound 280] |
| 3 µM | O=C(Nc1cc(OC2CCCCC2c2ccccc2)ccc1Cl)c1cc(Cl)ccc1O (stereo not drawn) [Compound 281] |
| 4 µM | O=C(Nc1cccc(OC2CCCCC2c2ccc(Cl)cc2)c1)c1cc(Cl)ccc1O (stereo not drawn) [Compound 282] |
| 0.9 µM | CC(C)C(COc1ccc(C(F)(F)F)cc1NC(=O)c1cc(Cl)ccc1O)c1ccc(Cl)cc1 (stereo not drawn) [Compound 283] |
| 2 µM | O=C(Nc1cc(Cl)ccc1OCCc1cccc(OC(F)(F)F)c1)c1cc(Cl)ccc1O [Compound 284] |
| 0.9 µM | O=C(Nc1cc(C(F)(F)F)ccc1OCCc1cccc(OC(F)(F)F)c1)c1cc(Cl)ccc1O [Compound 285] |
| 10 µM | CS(=O)(=O)c1ccc(CCOc2ccc(Cl)cc2NC(=O)c2cc(Cl)ccc2O)cc1 [Compound 286] |
| 3.1 µM | CS(=O)(=O)c1ccc(CCOc2ccc(C(F)(F)F)cc2NC(=O)c2cc(Cl)ccc2O)cc1 [Compound 287] |
| 3.3 µM | O=C(Nc1cc(Cl)ccc1OCCC1CC1)c1cc(Cl)ccc1O [Compound 288] |
| 3.3 µM | O=C(Nc1cc(Cl)ccc1OCc1ccccc1)c1cc(Cl)ccc1O [Compound 289] |
| 19 µM | O=C(Nc1cc(Cl)ccc1OCCc1ccccc1)c1cc(Cl)cc([N+](=O)[O-])c1O [Compound 294] |
| 1 µM | CCOCCOc1ccc(C(F)(F)F)cc1NC(=O)c1cc(Cl)ccc1O [Compound 295] |
| 0.8 µM | CC(C)OCCOc1ccc(C(F)(F)F)cc1NC(=O)c1cc(Cl)ccc1O [Compound 296] |

same assay, conditions: Homo sapiens; LNCaP cells; flagged "Estimated": based on actual data at different concentrations

| SMILES | EC50 |
| --- | --- |
| COc1ccc(Cl)cc1C(=O)N(C)c1cccc(OCCc2ccccc2)c1 [Compound 215] | 45 µM |
| COc1ccccc1CCOc1cccc(N(C)C(=O)c2cc(Cl)ccc2OC)c1 [Compound 216] | 32 µM |
| O=C(NCc1cccc(-c2ccccc2)c1)c1cccc(-c2ccccc2)c1O [Compound 218] | 32 µM |
| O=C(NCc1cccc(-c2ccccc2)c1)c1cc(-c2ccc(F)cc2F)ccc1O [Compound 220] | 20 µM |
| O=C(Nc1cccc(OCCc2ccccc2)c1)c1cccc(O)c1 [Compound 227] | 22 µM |
| COc1ccccc1CCOc1cccc(N(C)C(=O)c2cc(Cl)ccc2O)c1 [Compound 228] | 30 µM |
| COc1ccccc1CCOc1cccc(NC(=O)c2cc(Cl)ccc2[N+](=O)[O-])c1 [Compound 229] | 30 µM |
| O=C(NCc1ccccc1-c1ccccc1)c1cc(Cl)ccc1O [Compound 237] | 30 µM |
| O=C(NCc1cccc(-c2ccccc2)c1)c1cc(Cl)ccc1O [Compound 238] | 30 µM |

Now from value to compound:

| EC50 | SMILES |
| --- | --- |
| 30 µM | O=C(Nc1ccccc1C(=O)NCc1ccccc1)c1cc(Cl)ccc1O [Compound 255] |
| 2 µM | O=C(Nc1cc(C(F)(F)F)ccc1OCC(F)(F)F)c1cc(Cl)ccc1O [Compound 278] |
| 30 µM | O=C(NCc1ccc(Cl)c(C(F)(F)F)c1)c1cc(Cl)ccc1O [Compound 290] |
| 30 µM | Cc1ccc(CNC(=O)c2cc(Cl)ccc2O)cc1-c1ccccc1 [Compound 291] |
| 30 µM | O=C(NCc1ccc(Cl)c(-c2ccccc2)c1)c1cc(Cl)ccc1O [Compound 292] |
| 30 µM | O=C(NCc1cc(-c2ccccc2)ccc1Cl)c1cc(Cl)ccc1O [Compound 293] |
